Source: patent publication US4822800A (Ortho Pharmaceutical Corporation, priority 1986, dated 1989)
Read-outs that look alike come from different tables or passages of the source.

Columns and labels:
[1] = system: adult mongrel dogs; assay: renal vasodilating activity in anesthetized dogs; format: in vivo, dog (adult mongrel); conditions: Canis lupus familiaris, renal vasodilator, relative to controls; for change in vivo at 1.2 mg/kg: dose 1.2 mg/kg intravenous; for change in vivo at 6.2 mg/kg: dose 6.2 mg/kg intravenous; for change in vivo at 0.2 mg/kg: dose 0.2 mg/kg intravenous
Procedure: Goldberg et al, J. Pharmacol. Exp. Ther., 163, 188 (1968), performed an investigation of the structural requirements for dopamine-like renal vasodilation of phenethylamines and apomorphine. The following procedure is a variation of the assay described in that report.
Adult mongrel dogs were anesthetized and surgically prepared for electromagnetic measurement of renal artery blood flow. A carotid artery was cannulated for measuring arterial blood pressure, and drugs were administered intravenously. Heart rate was monitored with a cardiotachometer. Renal vascular resistance was calculated as the ratio of mean arterial blood pressure/renal artery blood flow. Dopamine was infused intravenously at 3 μg/kg/min for ten minutes (at an infusion rate of about 1 ml/min) to determine responsiveness of each dog to renal dopamine receptor stimulation. Cumulative dose-response data were obtained by infusing a compound of this invention at progressively increasing (usually three-fold) infusion rates, each dose being infused for five minutes. The maximum % increase from pre-drug control in renal artery blood flow (or a decrease in renal vascular resistance) was determined for each infusion dose.
RBF values are percent change in renal blood flow. RVR values are percent change in renal vascular resistance. MABP and HR are percent changes in mean arterial blood pressure and heart rate, respectively, relative to controls.

[2] = system: adult mongrel dogs; assay: acute in vivo cardiotonic activity in anesthetized dogs; design: species or system dog (adult mongrel); conditions: Canis lupus familiaris, cardiotonic, relative to controls; for change in vivo at 1.875 mg/kg: dose 1.875 mg/kg intravenous; for change in vivo at 0.375 mg/kg: dose 0.375 mg/kg intravenous; for change in vivo at 0.125 mg/kg: dose 0.125 mg/kg intravenous; for change in vivo at 1.87 mg/kg: dose 1.87 mg/kg intravenous; for change in vivo at 0.875 mg/kg: dose 0.875 mg/kg intravenous
Procedure: The acute in vivo cardiotonic activity of compounds prepared according to the present invention was determined according to a modification of the procedure described by Alousi et al., Circ. Res., 45, 666 (1979).
In particular, adult mongrel dogs were anesthetized with sodium pentobarbital and were artificially respired. Arterial pressure was monitored via a femoral artery, and the pulse pressure was used to trigger a cardiotachometer for heart rate. Left ventricular pressure was determined with a Millar catheter, and dP/dt (the change in ventricular pressure with time) was derived. Cardiac output was determined by measuring ascending aortic blood flow with an electromagnetic flow probe, and myocardial contractile force was measured with a Walton Brodie strain gauge sutured to the right ventricle. Lead II EKG was also recorded.
A standard dose (10 μg/kg/min) of dopamine was administered to assess myocardial responsiveness.
Compounds of the invention were administered by intravenous infusion or bolus […] administration, and the effects on cardiovascular parameters were determined.
Dose related effects of the test compound on blood pressure (BP), heart rate (HR), maximum change in left ventricular pressure with time (dP/dt max),% change in cardiac force (CF) and the increase in mean arterial blood pressure relative to controls (MABP) were compared to pretreatment control values, expressed as a% change and rated for activity.

[3] = read-out: MABP (mean arterial blood pressure)
[4] = read-out: RBF (renal blood flow)
[5] = read-out: RVR (renal vascular resistance)
[6] = read-out: dP/dt (maximum change left ventricular pressure with time)

Cc1nc(O)c(Cl)c2cc3c(cc12)OCO3 [AG]
change in vivo at 1.2 mg/kg ([1]; read-out: HR (heart rate)): 27%
change in vivo at 1.2 mg/kg [1, 3]: -27%
change in vivo at 1.2 mg/kg [1, 4]: 10%
change in vivo at 1.2 mg/kg [1, 5]: -34%
change in vivo at 1.875 mg/kg ([2]; read-out: CF (cardiac force)): 88%
change in vivo at 1.875 mg/kg ([2]; read-out: HR (heart rate)): 28%
change in vivo at 1.875 mg/kg [2, 3]: -22%
change in vivo at 1.875 mg/kg [2, 6]: 51%

COc1cc2c(C)nc(O)c(CC(C)C)c2cc1OC [AJ]
change in vivo at 6.2 mg/kg ([1]; read-out: HR (heart rate)): 2%
change in vivo at 6.2 mg/kg [1, 3]: 4%
change in vivo at 6.2 mg/kg [1, 4]: 9%
change in vivo at 6.2 mg/kg [1, 5]: -4%
change in vivo at 1.875 mg/kg ([2]; read-out: CF (cardiac force)): 39%
change in vivo at 1.875 mg/kg ([2]; read-out: HR (heart rate)): 10%
change in vivo at 1.875 mg/kg [2, 3]: -6%
change in vivo at 1.875 mg/kg [2, 6]: 25%

CCOc1cc2c(C)nc(O)cc2cc1OC [AK]
change in vivo at 0.2 mg/kg ([1]; read-out: HR (heart rate)): 10%
change in vivo at 0.2 mg/kg [1, 3]: -2%
change in vivo at 0.2 mg/kg [1, 4]: 10%
change in vivo at 0.2 mg/kg [1, 5]: -11%
change in vivo at 0.375 mg/kg ([2]; read-out: CF (cardiac force)): 114%
change in vivo at 0.375 mg/kg ([2]; read-out: HR (heart rate)): 13%
change in vivo at 0.375 mg/kg [2, 3]: -5%
change in vivo at 0.375 mg/kg [2, 6]: 39%

CCOc1cc2cnc(O)cc2cc1OC [AQ]
change in vivo at 1.2 mg/kg ([1]; read-out: HR (heart rate)): 16%
change in vivo at 1.2 mg/kg [1, 3]: 0%
change in vivo at 1.2 mg/kg [1, 4]: 13%
change in vivo at 1.2 mg/kg [1, 5]: -12%

CCOc1cc2c(C)nc(O)c(CC)c2cc1OC [AS]
change in vivo at 6.2 mg/kg ([1]; read-out: HR (heart rate)): 2%
change in vivo at 6.2 mg/kg [1, 3]: -1%
change in vivo at 6.2 mg/kg [1, 4]: 9%
change in vivo at 6.2 mg/kg [1, 5]: -11%
change in vivo at 0.125 mg/kg ([2]; read-out: CF (cardiac force)): 78%
change in vivo at 0.125 mg/kg ([2]; read-out: HR (heart rate)): 8%
change in vivo at 0.125 mg/kg [2, 3]: -10%
change in vivo at 0.125 mg/kg [2, 6]: 49%

COc1cc(Br)c2cc(O)nc(C)c2c1OC [AU]
change in vivo at 6.2 mg/kg ([1]; read-out: HR (heart rate)): -3%
change in vivo at 6.2 mg/kg [1, 3]: 0%
change in vivo at 6.2 mg/kg [1, 4]: 20%
change in vivo at 6.2 mg/kg [1, 5]: -10%

COc1cc2c(C)nc(O)c(C(=O)NN)c2cc1OC [AV]
change in vivo at 1.2 mg/kg ([1]; read-out: HR (heart rate)): 1%
change in vivo at 1.2 mg/kg [1, 3]: 5%
change in vivo at 1.2 mg/kg [1, 4]: 22%
change in vivo at 1.2 mg/kg [1, 5]: -13%
change in vivo at 1.87 mg/kg ([2]; read-out: CF (cardiac force)): 89%
change in vivo at 1.87 mg/kg ([2]; read-out: HR (heart rate)): 14%
change in vivo at 1.87 mg/kg [2, 3]: -2%
change in vivo at 1.87 mg/kg [2, 6]: 34%

CCOc1cc2cc(O)nc(C)c2cc1OC [AW]
change in vivo at 6.2 mg/kg ([1]; read-out: HR (heart rate)): 59%
change in vivo at 6.2 mg/kg [1, 3]: -17%
change in vivo at 6.2 mg/kg [1, 4]: 20%
change in vivo at 6.2 mg/kg [1, 5]: -34%

Cc1nc(O)cc2cc(O)c(O)cc12 [Compound A]
change in vivo at 13.9 mg/kg ([1]; dose 13.9 mg/kg intravenous, read-out: HR (heart rate)): 14%
change in vivo at 13.9 mg/kg ([1]; dose 13.9 mg/kg intravenous, read-out: MABP (mean arterial blood pressure)): -9%
change in vivo at 13.9 mg/kg ([1]; dose 13.9 mg/kg intravenous, read-out: RBF (renal blood flow)): 30%
change in vivo at up to 13.9 mg/kg ([1]; dose 13.9 mg/kg intravenous, read-out: RVR (renal vascular resistance)): -30%

COc1ccc2cc(O)nc(C)c2c1OC [Compound C, 3-Hydroxy-7,8-dimethoxy-1-methylisoquinoline]
change in vivo at 0.875 mg/kg ([2]; read-out: CF (cardiac force)): 62%
change in vivo at 0.875 mg/kg ([2]; read-out: HR (heart rate)): 10%
change in vivo at 0.875 mg/kg [2, 3]: -6%
change in vivo at 0.875 mg/kg [2, 6]: 51%
